Our source for the IC50 values is patent publication US8710228B2, “Cycloalkylamine substituted isoquinoline derivatives” (Sanofi, priority 2006, dated 2014).

This assay deals with T1, ROCKII or ROKα (Rattus norvegicus, UniProt Q62868).
T1 construct: purchased Upstate 14-451
T1 sequence (Q62868 11-552 limits assumed): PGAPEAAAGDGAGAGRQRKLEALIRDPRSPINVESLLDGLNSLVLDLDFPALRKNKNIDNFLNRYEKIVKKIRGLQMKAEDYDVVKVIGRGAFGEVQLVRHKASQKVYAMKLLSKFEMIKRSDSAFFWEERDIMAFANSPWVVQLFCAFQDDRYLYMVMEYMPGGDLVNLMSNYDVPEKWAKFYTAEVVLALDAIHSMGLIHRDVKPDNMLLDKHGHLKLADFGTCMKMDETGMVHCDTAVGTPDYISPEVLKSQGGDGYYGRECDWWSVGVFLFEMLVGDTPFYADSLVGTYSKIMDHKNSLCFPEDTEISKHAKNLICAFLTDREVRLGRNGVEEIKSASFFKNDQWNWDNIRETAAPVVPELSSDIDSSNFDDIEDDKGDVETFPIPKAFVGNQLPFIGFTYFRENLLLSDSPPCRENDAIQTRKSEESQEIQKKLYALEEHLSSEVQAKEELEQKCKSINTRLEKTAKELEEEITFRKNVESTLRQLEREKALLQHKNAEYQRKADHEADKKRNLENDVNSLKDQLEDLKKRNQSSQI
Kind of assay: Determination of Rho kinase inhibition (33P-ATP, Streptavidin Flash Plate). The assay is classed as biochemical. As to conditions: ATP 40 μM, activity denoted as pIC50 classes. As to the method: Determination of Rho Kinase Inhibition
To measure Rho-kinase inhibition, IC50 values were determined according to the following protocol:
Buffer: 25 mM Tris pH7.5; 0.02% BSA; 5% Glycerol; 0.008% Triton X100; 2% DMSO, 1 mM DTT; 1 mM MgCl2; 0.5 μCi/well γ^33P ATP
Enzyme: ROCKII or ROKα) (Upstate, Catalog #14-451 Lot # 24880U) 0.1 ng/μl
Final concentration of ATP in reaction mixture 40 μM
Biotinylated substrate, diluted to 0.25 μM with buffer described above (without ATP) • 1. 10 μl Tris buffer (±Inhibitor) • 2. Add 30 μL of enzyme solution • 3. Start the reaction with 30 μL of mix substrate/ATP/ATP33 • 4. Incubate for 20 min at room temperature • 5. Stop reaction with 30 μL of 50 mM EDTA • 6. Transfer 50 μL of stopped solution to Streptavidin Flash Plate plus, Perkin Elmer, SMP 103A • 7. Incubate for 30 min at RT • 8. Wash 4 times with 300 μl of PBS/0.1% Tween 20 • 9. Radioactivity in the well was determined
Turning to `CC1(c2ccc(CNC3CCC(Oc4ccc5cnccc5c4)CC3)cc2)NC(=O)NC1=O.O=C(O)C(F)(F)F` (mixture of isomers) [Example 38, 5-(4-{[4-(isoquinolin-6-yloxy)-cyclohexylamino]-methyl}-phenyl)-5-methyl-imidazolidine-2,4-dione], the IC50 entry is recorded as “+++++ (6.0 ≦ pIC50)”.
Consider `CC(C)CN(C)C1CCC(Oc2ccc3cnccc3c2)CC1.O=C(O)C(F)(F)F` (mixture of isomers) [Example 45, Isobutyl-[4-(isoquinolin-6-yloxy)-cyclohexyl]-methyl-amine], for which the IC50 result is “++++ (5.0 ≦ pIC50 < 6.0)”.
In the case of `CN(Cc1cnn(-c2ccc(F)cc2)c1)C1CCC(Oc2ccc3cnccc3c2)CC1.O=C(O)C(F)(F)F` (mixture of isomers) [Example 52, [1-(4-Fluoro-phenyl)-1H-pyrazol-4-ylmethyl]-[4-(isoquinolin-6-yloxy)-cyclohexyl]-methyl-amine] it was “++++ (5.0 ≦ pIC50 < 6.0)”; in that of `O=C(O)C(F)(F)F.c1ccc2c(CNC3CCC(Oc4ccc5cnccc5c4)CC3)cccc2c1` (mixture of isomers) [Example 54, [4-(Isoquinolin-6-yloxy)-cyclohexyl]-naphthalen-1-ylmethyl-amine], “++++ (5.0 ≦ pIC50 < 6.0)”; in that of `O=C(O)C(F)(F)F.c1csc(-c2nc(CNC3CCC(Oc4ccc5cnccc5c4)CC3)cs2)c1` (mixture of isomers) [Example 58, [4-(Isoquinolin-6-yloxy)-cyclohexyl]-(2-thiophen-2-yl-thiazol-4-ylmethyl)-amine], “++++ (5.0 ≦ pIC50 < 6.0)”.
In the case of `N[C@H]1CC[C@@H](Oc2ccc3cnccc3c2Cl)CC1` [Example 13, cis-4-(5-Chloro-isoquinolin-6-yloxy)-cyclohexylamine] it was “+++++ (6.0 ≦ pIC50)”; in that of `N[C@H]1CC[C@@H](Oc2ccc3cncc(Cl)c3c2)CC1` [Example 14, cis-4-(4-Chloro-isoquinolin-6-yloxy)-cyclohexylamine], “+++++ (6.0 ≦ pIC50)”.
For `N[C@H]1CC[C@@H](Oc2ccc3cnccc3c2Br)CC1` [Example 19, cis-4-(5-Bromo-isoquinolin-6-yloxy)-cyclohexylamine], the IC50 result is “+++++ (6.0 ≦ pIC50)”.
With `c1cncc(CN[C@H]2CC[C@@H](Oc3ccc4cnccc4c3)CC2)c1` [Example 23, cis-[4-(Isoquinolin-6-yloxy)-cyclohexyl]-pyridin-3-ylmethyl-amine] the entry was “+++++ (6.0 ≦ pIC50)”; with `CC(C)N[C@H]1CC[C@@H](Oc2ccc3cnccc3c2)CC1` [Example 26, Isopropyl-cis-[4-(isoquinolin-6-yloxy)-cyclohexyl]-amine], “+++++ (6.0 ≦ pIC50)”; with `CCOC(=O)N1CCN(C2CCC(Oc3ccc4cnccc4c3)CC2)CC1.O=C(O)C(F)(F)F` (stereo not shown) [Example 44, 4-[4-(Isoquinolin-6-yloxy)-cyclohexyl]-piperazine-1-carboxylic acid ethyl ester], “++++ (5.0 ≦ pIC50 < 6.0)”.
With `c1cc2cc(O[C@H]3CC[C@@H](NC4CC4)CC3)ccc2cn1` [Example 64, cis-Cyclopropyl-[4-(isoquinolin-6-yloxy)-cyclohexyl]-amine] the entry was “+++++ (6.0 ≦ pIC50)”.
With `CC(=O)Nc1ccc(CN[C@H]2CC[C@@H](Oc3ccc4cnccc4c3)CC2)cc1` [Example 72, cis-N-(4-{[4-(Isoquinolin-6-yloxy)-cyclohexylamino]-methyl}-phenyl)-acetamide] the entry was “+++++ (6.0 ≦ pIC50)”.
With `CN(C)/C=N/S(=O)(=O)c1cc(CN[C@H]2CC[C@@H](Oc3ccc4cnccc4c3Cl)CC2)ccc1Cl` [Example 74, 2-Chloro-5-{cis-[4-(5-chloro-isoquinolin-6-yloxy)-cyclohexylamino]-methyl}-N-dimethylaminomethylene-benzenesulfonamide], the IC50 entry is “+++++ (6.0 ≦ pIC50)”.
For `Clc1c(OC2CCC(NC3CCCCC3)CC2)ccc2cnccc12` (stereo not shown) [Example 80, [4-(5-Chloro-isoquinolin-6-yloxy)-cyclohexyl]-cyclohexyl-amine], the IC50 entry is recorded as “+++++ (6.0 ≦ pIC50)”.
With `Cl.N[C@H]1CC[C@@H](Oc2ccc3cnccc3c2-c2ccsc2)CC1` [Example 87, cis-4-(5-Thiophen-3-yl-isoquinolin-6-yloxy)-cyclohexylamine] the entry was “+++++ (6.0 ≦ pIC50)”; with `C=Cc1c(O[C@H]2CC[C@@H](N)CC2)ccc2cnccc12.Cl` [Example 90, cis-4-(5-Vinyl-isoquinolin-6-yloxy)-cyclohexylamine], “+++++ (6.0 ≦ pIC50)”; with `N[C@H]1CC[C@H](Oc2c(Cl)cc3cnccc3c2Cl)CC1` [Example 96, trans-4-(5,7-Dichloro-isoquinolin-6-yloxy)-cyclohexylamine], “+++++ (6.0 ≦ pIC50)”.
In the case of `N[C@H]1CC[C@@H](Oc2ccc3cnc(Nc4cccc(Cl)c4)cc3c2)CC1` [Example 147, cis-[6-(4-Amino-cyclohexyloxy)-isoquinolin-3-yl]-(3-chloro-phenyl)-amine] it was “++++ (5.0 ≦ pIC50 < 6.0)”; in that of `COc1cc(Nc2cc3cc(O[C@H]4CC[C@@H](N)CC4)ccc3cn2)cc(OC)c1OC.Cl` [Example 149, cis-[6-(4-Amino-cyclohexyloxy)-isoquinolin-3-yl]-(3,4,5-trimethoxy-phenyl)-amine], “+++++ (6.0 ≦ pIC50)”; in that of `N[C@H]1CC[C@@H](Oc2ccc3cnc(Nc4cnccn4)cc3c2)CC1` [Example 150, cis-[6-(4-Amino-cyclohexyloxy)-isoquinolin-3-yl]-pyrazin-2-yl-amine], “++++ (5.0 ≦ pIC50 < 6.0)”.
In the case of `CCc1cncc2ccc(O[C@H]3CC[C@@H](N)CC3)cc12` [Example 156, cis-4-(4-Ethyl-isoquinolin-6-yloxy)-cyclohexylamine] it was “+++++ (6.0 ≦ pIC50)”.
